Here are results for 10 molecules from US9695123B2, “Microbiocides” (Syngenta Participations AG, priority 2013, dated 2017).

Series [1] has as its system Puccinia recondite f. Sp. Tritici. Briefly: Puccinia recondita f. sp. tritici / wheat / leaf disc preventative (brown rust). It is filed as in vivo. The following applies: foliar, wheat leaf disc cv. Kanzler, inoculated 1 day after application, assessed 7-9 days after application, read-out: disease control. As to the method: Fungicidal Activity Against Puccinia recondite f. Sp. Tritici/Wheat/Leaf Disc Preventative (Brown Rust) Wheat leaf segments cv. Kanzler were placed on agar in multiwell plates (24-well format) and sprayed with the formulated test compound diluted in water. The leaf disks were inoculated with a spore suspension of the fungus 1 day after application. The inoculated leaf segments were incubated at 19° C. and 75% rh under a light regime of 12 h light/12 h darkness in a climate cabinet and the activity of a compound was assessed as percent disease control compared to untreated when an appropriate level of disease damage appears in untreated check leaf segments (7-9 days after application).

The test system of series [2] is Mycosphaerella arachidis (Cercospora arachidicola). Briefly: Mycosphaerella arachidis (Cercospora arachidicola) / liquid culture (early leaf spot). In kind it is cell-based. To be noted: 96 h, liquid culture (PDB), inhibition of growth photometrically 4-5 days after application, read-out: disease control. As to the method: Fungicidal Activity Against Mycosphaerella arachidis (Cercospora arachidicola)/Liquid Culture (Early Leaf Spot) Conidia of the fungus from cryogenic storage were directly mixed into nutrient broth (PDB potato dextrose broth). After placing a (DMSO) solution of test compound into a microtiter plate (96-well format), the nutrient broth containing the fungal spores was added. The test plates were incubated at 24° C. and the inhibition of growth was determined photometrically 4-5 days after application.

Series [3] has as its system Blumeria graminis f. Sp. Tritici (Erysiphe graminis f. Sp. Tritici). Nature of the series: Blumeria graminis f. sp. tritici / wheat / leaf disc preventative (powdery mildew on wheat). In kind it is in vivo. To be noted: foliar, wheat leaf disc cv. Kanzler, inoculated 1 day after application, assessed 6-8 days after application, read-out: disease control. The protocol: Fungicidal Activity Against Blumeria graminis f. Sp. Tritici (Erysiphe graminis f. Sp. Tritici)/Wheat/Leaf Disc Preventative (Powdery Mildew on Wheat)
Wheat leaf segments cv. Kanzler were placed on agar in a multiwell plate (24-well format) and sprayed with the formulated test compound diluted in water. The leaf disks were inoculated by shaking powdery mildew infected plants above the test plates 1 day after application. The inoculated leaf disks were incubated at 20° C. and 60% rh under a light regime of 24 h darkness followed by 12 h light/12 h darkness in a climate chamber and the activity of a compound was assessed as percent disease control compared to untreated when an appropriate level of disease damage appears on untreated check leaf segments (6-8 days after application).

Series [4] has as its system Mycosphaerella graminicola (Septoria tritici). Briefly: Mycosphaerella graminicola (Septoria tritici) / liquid culture (Septoria blotch). It is filed as cell-based. The following applies: Zymoseptoria tritici, 96 h, liquid culture (PDB), inhibition of growth photometrically 4-5 days after application, read-out: disease control. The protocol:
Fungicidal Activity Against Mycosphaerella graminicola (Septoria tritici)/Liquid Culture (Septoria Blotch) Conidia of the fungus from cryogenic storage were directly mixed into nutrient broth (PDB potato dextrose broth). After placing a (DMSO) solution of test compound into a microtiter plate (96-well format), the nutrient broth containing the fungal spores was added. The test plates were incubated at 24° C. and the inhibition of growth was determined photometrically 4-5 days after application.

For a further series, the system named is Fusarium culmorum. Briefly: Fusarium culmorum / liquid culture (root rot). It is filed as cell-based. The following applies: liquid culture (PDB), inhibition of growth photometrically after 48 hrs, read-out: disease control. As to the method:
Fungicidal Activity Against Fusarium culmorum/Liquid Culture (Root Rot)
Conidia of the fungus from cryogenic storage were directly mixed into nutrient broth (PDB potato dextrose broth). After placing a (DMSO) solution of the test compounds into a microtiter plate (96-well format) the nutrient broth containing the fungal spores was added. The test plates were incubated at 24 C and the inhibition of growth was determined photometrically after 48 hrs.

A further series deals with Gaeumannomyces graminis. Nature of the series: Gaeumannomyces graminis / liquid culture (take-all of cereals). It is filed as cell-based. The following applies: 96 h, liquid culture (PDB), inhibition of growth photometrically 4-5 days after application, read-out: disease control. As to the method: Fungicidal Activity Against Gaeumannomyces graminis/Liquid Culture (Take-all of Cereals) Mycelial fragments of the fungus from cryogenic storage were directly mixed into nutrient broth (PDB potato dextrose broth). After placing a (DMSO) solution of test compound into a microtiter plate (96-well format), the nutrient broth containing the fungal spores is added. The test plates were incubated at 24° C. and the inhibition of growth was determined photometrically 4-5 days after application.

In series [5] the test system is Puccinia recondita f. Sp. Tritici. Nature of the series: Puccinia recondita f. sp. tritici / wheat / leaf disc curative (brown rust). It is filed as in vivo. The following applies: foliar, 192 h, applied one day after inoculation, assessed 8 dpi, read-out: disease control. The protocol: Fungicidal Activity Against Puccinia recondita f. Sp. Tritici/Wheat/Leaf Disc Curative (Brown Rust) Wheat leaf segments are placed on agar in multiwell plates (24-well format). The leaf disks are then inoculated with a spore suspension of the fungus. One day after inoculation the test solution is applied. After appropriate incubation the activity of a compound is assessed 8 dpi (days after inoculation) as curative fungicidal activity. Dose range: 200-22 ppm.

In series [6] the test system is Botryotinia fuckeliana (Botrytis cinerea). Nature of the series: Botryotinia fuckeliana (Botrytis cinerea) / liquid culture (gray mould). In kind it is cell-based. To be noted: 72 h, liquid culture (Vogels broth), inhibition of growth photometrically 3-4 days after application, read-out: disease control. The protocol:
Fungicidal Activity Against Botryotinia fuckeliana (Botrytis cinerea)/Liquid Culture (Gray Mould) Conidia of the fungus from cryogenic storage were directly mixed into nutrient broth (Vogels broth). After placing a (DMSO) solution of test compound into a microtiter plate (96-well format), the nutrient broth containing the fungal spores was added. The test plates were incubated at 24° C. and the inhibition of growth was determined photometrically 3-4 days after application.

Turning to `CCCC#Cc1ccc(C(O)(Cn2cncn2)C(F)(F)c2ccc(Cl)cn2)cc1` (centres unmarked) [Compound 12], the melting point (as a rule, the temperature, or range, at which the solid turns liquid) lay within 124 to 128 °C. Moreover, the pest or weed control at 200 ppm in series [1] was at least 80%. Besides, the inhibition of growth at 200 ppm in [2] is at least 80%. Further, in series [3], the pest or weed control at 200 ppm is at least 80%. In [4], the inhibition of growth at 200 ppm is at least 80%. Further, the inhibition of growth at 200 ppm in the series with Fusarium culmorum is at least 80%. In the series on Gaeumannomyces graminis, the inhibition of growth at 200 ppm is at least 80%. Further, in series [5], the pest or weed control at 200 ppm is at least 80%. Moreover, the inhibition of growth at 200 ppm in [6] was at least 80%.

On to `N#CC(Cc1cccnc1)c1ccc(C#CC2CC2)cc1` (centres unmarked) [Compound 1], for which the inhibition of growth at 200 ppm (in [2]; in series [4]; in the series with Fusarium culmorum; in the series on Gaeumannomyces graminis; in series [6]) was at least 80% throughout. Moreover, the pest or weed control at 200 ppm in series [3] and in series [5] was at least 80% each time.

On to `OC(Cn1cncn1)(c1ccc(C#CC2CC2)cc1)C(F)(F)c1ccc(Cl)cn1` (centres unmarked) [Compound 13], for which the melting point was 88 to 94 °C. Moreover, in series [1], the pest or weed control at 200 ppm was at least 80%. Moreover, the inhibition of growth at 200 ppm in [2] is at least 80%. For the same molecule, in series [3], the pest or weed control at 200 ppm is at least 80%. Also, the inhibition of growth at 200 ppm in series [4] is at least 80%. In the series with Fusarium culmorum, the inhibition of growth at 200 ppm is at least 80%. In series [5], the pest or weed control at 200 ppm was at least 80%. In series [6], the inhibition of growth at 200 ppm was at least 80%.

On to `N#CC(Cc1cncnc1)c1ccc(C#CC2CC2)cc1` (centres unmarked) [Compound 2], for which the pest or weed control at 200 ppm in series [1], in [3] and in [5] was at least 80% in each case. Besides, the inhibition of growth at 200 ppm (in [2]; in series [4]; with Fusarium culmorum; in the series with Gaeumannomyces graminis) was at least 80% each time.

Consider `OC(Cn1cncn1)(c1ccc(C#CC2CC2)cc1)C(F)(F)c1ccccn1` (centres unmarked) [Compound 7], for which the pest or weed control at 200 ppm in [1], in [3] and in [5] was at least 80% in each case. Also, the inhibition of growth at 200 ppm (in series [2]; in series [4]; in the series with Fusarium culmorum; in the series with Gaeumannomyces graminis; in series [6]) was at least 80% throughout.

Regarding `OC(Cn1ccnc1)c1ccc(C#CC2CC2)cc1Cl` (centres unmarked) [Compound 5], the pest or weed control at 200 ppm in [1], in series [3] and in series [5] was at least 80% in each case. Further, the inhibition of growth at 200 ppm in series [2] and in [6] was at least 80% throughout.

`CC(C)C#Cc1ccc(C(O)(Cn2cncn2)C(F)(F)c2ccc(Cl)cn2)cc1` (centres unmarked) [Compound 11]: the melting point lay within 128 to 132 °C. For the same molecule, in [1], the pest or weed control at 200 ppm is at least 80%. Also, the inhibition of growth at 200 ppm in [2] was at least 80%. Moreover, the pest or weed control at 200 ppm in [3] is at least 80%. For the same molecule, the inhibition of growth at 200 ppm in series [4] is at least 80%. The inhibition of growth at 200 ppm in the series on Fusarium culmorum is at least 80%. Further, in the series on Gaeumannomyces graminis, the inhibition of growth at 200 ppm is at least 80%. The pest or weed control at 200 ppm in [5] is at least 80%. The inhibition of growth at 200 ppm in [6] is at least 80%.

As for `OC(Cn1ccnc1)(c1ccc(C#CC2CC2)cc1)C(F)(F)c1ccccn1` (centres unmarked) [Compound 6], the pest or weed control at 200 ppm in [1], in [3] and in series [5] was at least 80% throughout. Besides, the inhibition of growth at 200 ppm (in series [2]; in series [4]; in the series on Gaeumannomyces graminis; in [6]) was at least 80% each time.

With `N#CC(Cc1cccnc1)c1ccc(C#CC2CC2)cc1F` (centres unmarked) [Compound 10], the pest or weed control at 200 ppm in [1], in series [3] and in series [5] was at least 80% throughout. For the same molecule, the inhibition of growth at 200 ppm (in series [2]; in series [4]; in the series on Fusarium culmorum; with Gaeumannomyces graminis; in [6]) was at least 80% each time.

Regarding `Cc1cncc(CC(C#N)c2ccc(C#CC3CC3)cc2)c1` (centres unmarked) [Compound 3], the inhibition of growth at 200 ppm (in [2]; in series [4]; with Fusarium culmorum; in the series with Gaeumannomyces graminis; in series [6]) was at least 80% each time. Also, the pest or weed control at 200 ppm in [3] was at least 80%.
